Converted amounts (≈) assume the structure as drawn.
Experiments:
[1] = system: Mycobacterium tuberculosis; assay: Potency index, ratio of pyrimethamine MIC90 to compound MIC90 for Mycobacterium tuberculosis H37Rv; type: functional
Vero = assay: Cytotoxicity against African green monkey Vero cells assessed as cell viability up to 62.5 ug/mL after 72 hrs by MTT assay; type: cell-based; conditions: chlorocebus sabaeus
[2] = system: Mycobacterium tuberculosis; assay: Antimycobacterial activity against Mycobacterium tuberculosis H37Rv assessed as growth inhibition by Alamar Blue staining-based broth microdilution assay; type: functional, organism-based
[3] = system: Mycobacterium tuberculosis; assay: Potency index, ratio of cycloserine EC50 to compound EC50 for Mycobacterium tuberculosis H37Rv; type: functional
[4] = system: Mycobacterium tuberculosis; assay: Potency index, ratio of pyrimethamine EC50 to compound EC50 for Mycobacterium tuberculosis H37Rv; type: functional
[5] = system: Mycobacterium tuberculosis; assay: Potency index, ratio of pyrimethamine EC90 to compound EC90 for Mycobacterium tuberculosis H37Rv; type: functional

| SMILES | Ratio [1] | Activity (Vero) | EC50 [2] [µM] | EC90 [2] [µM] | MIC90 [2] [µM] | Ratio EC50 [3] | Ratio EC50 [4] | Ratio [5] |
| --- | --- | --- | --- | --- | --- | --- | --- | --- |
| COc1ccc(/C=C2\SC(=O)N(C(C(=O)C3CC3)c3ccccc3F)C2=O)cc1OC (stereo unspecified) | 4 | Non-toxic | 8 | 16 | 25 (≈ 11 µg/mL) | – | – | – |
| COc1cc(OC)c(/C=C2\SC(=O)N(C(C(=O)C3CC3)c3ccccc3F)C2=O)c(OC)c1 (stereo unspecified) | – | Non-toxic | 13 | 27 | 50 (≈ 23.6 µg/mL) | – | – | – |
| COc1cc(/C=C2\SC(=O)N(C(C(=O)C3CC3)c3ccccc3F)C2=O)cc(OC)c1OC (stereo unspecified) | – | Non-toxic | 19 | 53 | 50 (≈ 23.6 µg/mL) | – | – | – |
| COc1cc(Br)c(/C=C2\SC(=O)N(C(C(=O)C3CC3)c3ccccc3F)C2=O)cc1O (stereo unspecified) | – | Non-toxic | 15 | 54 | 50 (≈ 25.3 µg/mL) | – | – | – |
| O=C(C1CC1)C(c1ccccc1F)N1C(=O)S/C(=C\c2ccc(N3CCCCC3)cc2)C1=O (stereo unspecified) | 4 | Non-toxic | 24 | 36 | 25 (≈ 11.6 µg/mL) | – | – | – |
| O=C(C1CC1)C(c1ccccc1F)N1C(=O)S/C(=C\c2cccs2)C1=O (stereo unspecified) | 4 | Non-toxic | 6 | 11 | 25 (≈ 9.69 µg/mL) | 1.95 | 5.85 | 6.26 |
| O=C(C1CC1)C(c1ccccc1F)N1C(=O)S/C(=C\c2cc(Br)cs2)C1=O (stereo unspecified) | – | Non-toxic | 18 | 27 | 50 (≈ 23.3 µg/mL) | – | – | – |
| O=C(C1CC1)C(c1ccccc1F)N1C(=O)S/C(=C\c2c[nH]c3ccccc23)C1=O (stereo unspecified) | 4 | Non-toxic | 18 | 27 | 25 (≈ 10.5 µg/mL) | – | – | – |
| O=C(C1CC1)C(c1ccccc1F)N1C(=O)S/C(=C\c2ccc3ccccc3n2)C1=O (stereo unspecified) | 4 | Non-toxic | 14 | 68 | 25 (≈ 10.8 µg/mL) | – | – | – |
| O=C(C1CC1)C(c1ccccc1F)N1C(=O)S/C(=C\c2ccc3c(c2)OCO3)C1=O (stereo unspecified) | 4 | Non-toxic | 9 | 21 | 25 (≈ 10.6 µg/mL) | – | – | – |
| O=C(C1CC1)C(c1ccccc1F)N1C(=O)CSC1=O (stereo unspecified) | 4 | Non-toxic | 6 | 26 | 25 (≈ 7.33 µg/mL) | – | – | – |
| O=C(C1CC1)C(c1ccccc1F)N1C(=O)S/C(=C\c2ccccc2)C1=O (stereo unspecified) | – | Non-toxic | 17 | 36 | 50 (≈ 19.1 µg/mL) | – | – | – |
| O=C(C1CC1)C(c1ccccc1F)N1C(=O)S/C(=C\c2ccc(Cl)cc2)C1=O (stereo unspecified) | – | Non-toxic | 25 | 55 | 50 (≈ 20.8 µg/mL) | – | – | – |
| O=C(C1CC1)C(c1ccccc1F)N1C(=O)S/C(=C\c2ccc(F)cc2)C1=O (stereo unspecified) | 4 | Non-toxic | 11 | 25 | 25 (≈ 9.99 µg/mL) | – | – | – |
| O=C(C1CC1)C(c1ccccc1F)N1C(=O)S/C(=C\c2ccc(O)cc2)C1=O (stereo unspecified) | 4 | Non-toxic | 10 | 19 | 25 (≈ 9.94 µg/mL) | – | – | – |
| COc1ccc(/C=C2\SC(=O)N(C(C(=O)C3CC3)c3ccccc3F)C2=O)cc1 (stereo unspecified) | 4 | Non-toxic | 11 | 27 | 25 (≈ 10.3 µg/mL) | – | – | – |
| CSc1ccc(/C=C2\SC(=O)N(C(C(=O)C3CC3)c3ccccc3F)C2=O)cc1 (stereo unspecified) | 4 | Non-toxic | 16 | 25 | 25 (≈ 10.7 µg/mL) | – | – | – |
| O=C(C1CC1)C(c1ccccc1F)N1C(=O)S/C(=C\c2ccc(O)c(O)c2)C1=O (stereo unspecified) | 4 | Non-toxic | 21 | 55 | 25 (≈ 10.3 µg/mL) | – | – | – |
| NCC[C@H](O)C(=O)N[C@@H]1C[C@H](N)[C@@H](O[C@H]2O[C@H](CN)[C@@H](O)[C@H](O)[C@H]2O)[C@H](O)[C@H]1O[C@H]1O[C@H](CO)[C@@H](O)[C@H](N)[C@H]1O [AMIKACIN] | – | – | – | 0.08 | 0.16 (≈ 0.0937 µg/mL) | – | – | – |
| N[C@@H]1CONC1=O [CYCLOSERINE] | – | – | 12.5 | 13.5 | 25 (≈ 2.55 µg/mL) | – | – | – |
| CC[C@@H](CO)NCCN[C@@H](CC)CO [ETHAMBUTOL] | – | – | < 1.56 | 32.8 | 12.5 (≈ 2.55 µg/mL) | – | – | – |
| NNC(=O)c1ccncc1 [ISONIAZID] | – | – | 0.18 | 0.29 | 0.31 (≈ 0.0425 µg/mL) | – | – | – |
| CCc1nc(N)nc(N)c1-c1ccc(Cl)cc1 [PYRIMETHAMINE] | – | – | 37.4 | 75 | 100 (≈ 24.9 µg/mL) | – | – | – |
